Structures are written as SMILES. Where two headings read alike, the source gives them in different places.

The target of one data set is T1, human MrgX1 receptor (Homo sapiens, UniProt Q96LB2).
T1 construct: expressed in transfected cells
Briefly: IP1 Cellular Assay for EC50 Determination Against hMrgX1 by HTRF. The format is cell-based. The note with it: in presence of EC15 of BAM8-22; for EC50: HEK293 cells stably expressing hMrgX1, geometric mean (SEM, n), read-out: Relative EC50 (SEM, n). The protocol:
IP1 Cellular Assay for EC50 Determination Against hMrgX1 by HTRF
Cell plating: HEK293 cells stably expressing the recombinant human MrgX1 receptor are expanded in culture flasks (Corning, T150), using growth media containing DMEM with glutamine (GIBCO™, Cat. #11960-044) supplemented with 10% heat-inactivated FBS (HyClone™, Cat. #CH30073), 1% penicillin/streptomycin (HyClone™, Cat. #SV30010; 10,000 U/mL penicillin; 10,000 μg/mL streptomycin in 0.85% NaCl), 20 mM HEPES (GIBCO™, Cat. #15530122) and 0.3 mg/mL G418 (GIBCO™, Cat. #11811031). When cell monolayers achieve a level of 80-90% confluence, monolayers are washed once with 10 mL of DPBS (HyClone™, Cat. #14190-144), dissociated using TrypLE™ Express enzyme cell dissociation media (GIBCO™, Cat. #12605-010), and diluted by addition of 10 mL DPBS. Dissociated cells are transferred to a sterile 50 mL conical tube, pelleted by centrifugation at 300×g to remove the growth and dissociation media, and diluted to 1M cells/mL into DMEM for plating.
IP1 Potency and Efficacy Determination: Test compounds are dissolved in DMSO to a concentration of 10 mM and serially diluted in DMSO to obtain a 10-point concentration response stock dilution plate. Growth media is removed from the cell plate, and the stock 10-point dilution plate is diluted into media and stamped into the cell plate at a concentration 2× higher than the final test concentration of 30 μM maximum. The endogenous agonist […] (Tocris-BioScience® Cat. #1763) is diluted to the EC15, determined independently at a minimum of n=3, into the cell plate and incubated at room temperature for 120 min. Subsequently, half the volume each of anti-IP1 cryptate and d2-labeled IP1 in lysis buffer, supplied with the IP-One Gq Kit (CisBio Cat. #62IPAPEC) are added to the cell plate to initiate cell lysis, and incubated for 60 min at room temperature in the dark. At that point, fluorescence is determined at 620 and 665 nm (˜100 μs following laser excitation).
Data Analysis: Fluorescent ratios are determined as the ratio of the fluorescence emission at […] and converted to IP1 concentration, using the IP1 standard curve generated in a separate plate, following the manufacturer's instructions. The IP1 concentration is then plotted as a function of compound concentration. Potentiator potency (EC50) is defined as the compound concentration, in the presence of the EC15 of the endogenous agonist […], resulting in 50% of the increase in IP1 concentration achieved by a saturating concentration of […], and is determined by using Genedata software (GeneData AG, Basel Switzerland) fitting the following equation to the 10-point CRC, where y is the IP1 concentration determined for a given compound concentration, [L] denotes the concentration of test compound and Max is the maximum increase achieved by a saturating concentration of […]: Y=Max*[L]/(EC50+[L]) EC50 values are reported as the geometric mean in nM (SEM, n).

Data set [1] in a line: In Vivo Determination of Kp,uu,brain in Mice. Set-up: species or system mouse. The note with it: for Kp uu at 2 h / concentration at 2 h: male, mouse; for Kp uu at 2 h: C57Bl/6, brain/plasma; for concentration at 2 h: C57Bl/6, mouse, po. The source says:
In Vivo Determination of Kp,uu,brain in Mice
Unbound brain-to-plasma partition coefficient (Kp,uu,brain) is one of the key pharmacokinetic parameter for evaluating a compound's ability to cross the blood-brain barrier (BBB). It is typically measured in pre-clinical species using the following methodology. Kp,uu,brain values indicate the fraction of free drug in plasma that partitions across the BBB.
Subjects: The subjects for these studies are 12 male C57Bl/6 mice (Envigo, Indianapolis, IN, USA) between 8-10 weeks old at time of test. Mice are housed in groups of 4 in high density plastic home cages. Food and water is available ad libitum. The rooms are maintained at 73° F. with 30-70% relative humidity and kept on a light/dark cycle of 0600-1800 h. Agent: The compound of Example 2 is prepared at 0.3, 1, and 3 mg/ml in the 1% HEC, 0.25% TWEEN®80, 0.05% DOWSIL™ vehicle in water. Prepared compound is sonicated in water bath for 30 min until a suspension is formed. Mice are dosed at 10 ml/kg for a respective 3, 10 or 30 mg/kg dose. Dosing and Tissue Collection: For this experiment, four mice per dosing group receive oral dosing of either: 3, 10, or 30 mg/kg of the compound of Example 2. Mice are euthanized at 2 h post-dosing via CO2 asphyxiation, plasma samples are collected via cardia puncture, and mouse brains removed, weighed, and frozen on dry ice. Blood samples are stored in EDTA tubes on wet ice and centrifuged at 15 k rpm for 10 min. Plasma is collected, plated in a 96-well plate, and frozen at −80° C.
Pharmacokinetic sampling: Plasma and brain samples obtained are analyzed for Example 2 using an LC-MS/MS method (Q2 Solutions, Indianapolis, IN, USA). Plasma samples are extracted using protein precipitation. The lower limit of quantification is 25 ng/mL, and the upper limit of quantification is 5000 ng/mL. Brain samples are homogenized, and the analyte is extracted using protein precipitation. The lower limit of quantification is 4 ng/g and the upper limit of quantification is 200000 ng/g.
Analysis and Results: Kp,uu,brain is calculated for each time point from the expression below where individual components are derived from a combination of in vitro and in vivo measurements carried out as described above:
[formula] where Ctotal,brain, Cu,brain, Ctotal,plasma, and Cu,plasma are total and unbound brain and plasma concentrations, and fu,brain and fu,plasma are fractions unbound in brain and plasma, respectively.

Data set [2] in a line: Plasma and brain homogenate protein binding by equilibrium dialysis. The format is in vitro ADME, mouse. The protocol:
Determination of plasma and brain protein binding: Mouse plasma and brain homogenate protein binding is determined in vitro using equilibrium dialysis, as described elsewhere [Zamek-Gliszczynski et al., J Pharm Sci, 101:1932-1940, 2012]. The results are reported as fraction unbound in plasma (fu,plasma) and brain (fu,brain) which are then utilized to calculate Kp,uu,brain as described below. Mouse fu,plasma and fu,brain of Example 2 are determined to be 0.0421 and 0.0181, respectively.

T1 sequence (Q96LB2 whole entry): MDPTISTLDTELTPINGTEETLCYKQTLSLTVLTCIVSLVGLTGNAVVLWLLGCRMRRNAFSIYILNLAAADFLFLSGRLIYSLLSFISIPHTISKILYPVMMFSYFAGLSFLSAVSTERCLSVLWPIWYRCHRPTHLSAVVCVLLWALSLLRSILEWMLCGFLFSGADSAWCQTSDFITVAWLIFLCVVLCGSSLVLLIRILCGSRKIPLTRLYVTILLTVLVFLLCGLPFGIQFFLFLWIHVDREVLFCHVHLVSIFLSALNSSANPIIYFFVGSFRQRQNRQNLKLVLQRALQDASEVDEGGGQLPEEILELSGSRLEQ

In the case of `N#Cc1cc(F)c(Oc2cc(C(F)(F)F)nc(N)n2)c(F)c1` [Example 3, 4-[2-Amino-6-(trifluoromethyl)pyrimidin-4-yl]oxy-3,5-difluoro-benzonitrile], the EC50 (as a rule, the concentration that produces a half-maximal response) on human MrgX1 receptor was 104 nM.
Consider `Cc1c(Oc2c(F)cccc2F)nc(N)nc1C(F)(F)F` [Example 6, 4-(2,6-difluorophenoxy)-5-methyl-6-(trifluoromethyl)pyrimidin-2-amine], for which the EC50 on human MrgX1 receptor was 38 nM.
The same measure, in the same setting: to `Nc1nc(Oc2c(F)cccc2F)cc(C(F)(F)F)n1` [Example 1, 4-(2,6-Difluorophenoxy)-6-(trifluoromethyl)pyrimidin-2-amine] belongs 72 nM.
With `Nc1nc(Oc2c(F)cc(F)cc2F)cc(C(F)(F)F)n1` [Example 2, 4-(2,4,6-Trifluorophenoxy)-6-(trifluoromethyl)pyrimidin-2-amine], the “blood brain barrier crossing / central penetrance” value in data set [1] (2 h post-oral administration in mice) was “crosses the blood brain barrier and has central penetrance”. Besides, the Kp uu at 2 h came to 0.506 ± 0.107 in data set [1] (3 mg/kg oral), 0.586 ± 0.116 in data set [1] (10 mg/kg oral) and 0.601 ± 0.0553 in data set [1] (30 mg/kg oral). In addition, the concentration at 2 h in data set [1] (brain, 3 mg/kg, 3 mg/kg oral, read-out: Total brain conc. (Ctotal,brain) ± SD) turned out to be 972 ± 353 nM; in data set [1] (brain, 3 mg/kg, 3 mg/kg oral, using fu,brain 0.0181, read-out: Unbound brain conc. (Cu,brain) ± SD) it was 17.6 ± 6.39 nM; in data set [1] (brain, 10 mg/kg, 10 mg/kg oral, read-out: Total brain conc. (Ctotal,brain) ± SD), 3900 ± 1800 nM; in data set [1] (brain, 10 mg/kg, 10 mg/kg oral, using fu,brain 0.0181, read-out: Unbound brain conc. (Cu,brain) ± SD), 55.4 ± 32.5 nM; in data set [1] (brain, 30 mg/kg, 30 mg/kg oral, read-out: Total brain conc. (Ctotal,brain) ± SD) it was 13700 ± 4200 nM; in data set [1] (brain, 30 mg/kg, 30 mg/kg oral, using fu,brain 0.0181, read-out: Unbound brain conc. (Cu,brain) ± SD), 248 ± 75.9 nM. Also, the concentration at 2 h in data set [1] (plasma, 3 mg/kg, 3 mg/kg oral, read-out: Total plasma conc. (Ctotal,plasma) ± SD) came out at 809 ± 140 nM; in data set [1] (plasma, 3 mg/kg, 3 mg/kg oral, using fu,plasma 0.0421, read-out: Unbound plasma conc. (Cu,plasma) ± SD) it was 34.1 ± 5.94 nM; in data set [1] (plasma, 10 mg/kg, 10 mg/kg oral, read-out: Total plasma conc. (Ctotal,plasma) ± SD), 2770 ± 651 nM; in data set [1] (plasma, 10 mg/kg, 10 mg/kg oral, using fu,plasma 0.0421, read-out: Unbound plasma conc. (Cu,plasma) ± SD), 117 ± 27.4 nM; in data set [1] (plasma, 30 mg/kg, 30 mg/kg oral, read-out: Total plasma conc. (Ctotal,plasma) ± SD), 9700 ± 2410 nM; in data set [1] (plasma, 30 mg/kg, 30 mg/kg oral, using fu,plasma 0.0421, read-out: Unbound plasma conc. (Cu,plasma) ± SD), 409 ± 101 nM. Also, the EC50 at human MrgX1 receptor amounted to 61 nM. For the same compound, the fraction unbound – broadly, the share of the substance not bound to proteins or other matrix – in data set [2] (mouse brain homogenate, read-out: fraction unbound in brain (fu,brain)) came out at 0.0181; in data set [2] (mouse plasma, read-out: fraction unbound in plasma (fu,plasma)), 0.0421.
In the case of `Cc1c(Oc2c(F)cc(F)cc2F)nc(N)nc1C(F)(F)F` [Example 4, 5-Methyl-4-(trifluoromethyl)-6-(2,4,6-trifluorophenoxy)pyrimidin-2-amine], the EC50 on human MrgX1 receptor worked out at 40 nM.
As to `Cc1c(Oc2c(F)cc(C#N)cc2F)nc(N)nc1C(F)(F)F` [Example 5, 4-[2-Amino-5-methyl-6-(trifluoromethyl)pyrimidin-4-yl]oxy-3,5-difluoro-benzonitrile], the EC50 at human MrgX1 receptor is 82 nM. Also, the “Max (Mean ± SEM)” value at human MrgX1 receptor (maximum stimulation achieved in the assay) came out at 120 nM.

These data come from patent US11773067B2, “(Trifluoromethyl)pyrimidine-2-amine compounds” (Eli Lilly and Company, priority 2020, dated 2023).
